Laboratory results from the Deep4Chem optical property database.
Values belong to the compound of their own block, whether it stands above or below them.

Assay: solvent given as SMILES

SMILES: CCCCCCCCCCCCCCCCN(CCCCCCCCCCCCCCCC)c1ccc(/C=C/c2cc[n+](Cc3cc(C[n+]4ccc(/C=C/c5ccc(N(CCCCCCCCCCCCCCCC)CCCCCCCCCCCCCCCC)cc5)cc4)cc(C[n+]4ccc(/C=C/c5ccc(N(CCCCCCCCCCCCCCCC)CCCCCCCCCCCCCCCC)cc5)cc4)c3)cc2)cc1
absorption maximum (in C1COCCO1): 482 nm
absorption maximum (in CC(C)O): 506 nm
absorption maximum (in CCCCCC): 481 nm
absorption maximum (in CCCCCCCCO): 498 nm
absorption maximum (in CCCCO): 507 nm
absorption maximum (in CCCO): 508 nm
absorption maximum (in CCO): 508 nm
absorption maximum (in CO): 509 nm
absorption maximum (in CS(C)=O): 486 nm
absorption maximum (in Cc1ccc(C)cc1): 483 nm
absorption maximum (in Cc1ccccc1): 483 nm
absorption maximum (in ClC(Cl)Cl): 514 nm
absorption maximum (in ClCCl): 516 nm
absorption maximum (in c1ccccc1): 484 nm

SMILES: CCN(CC)c1ccc(/N=N/c2cc3c(=O)[nH][nH]c(=O)c3cc2[N+](=O)[O-])c(NC(C)=O)c1
absorption maximum (in CC(=O)O): 532 nm
absorption maximum (in CN(C)C=O): 518 nm
absorption maximum (in CS(C)=O): 519 nm

SMILES: CC(C)[Si](C#Cc1ccc(C#C[Si](C(C)C)(C(C)C)C(C)C)c2nc3ccccc3nc12)(C(C)C)C(C)C
absorption maximum (in CCCCCC): 440 nm
absorption maximum (in ClCCl): 439 nm

SMILES: COC(=O)c1ccc(/C=C2\C=C(c3ccccc3)NC2=O)cc1
absorption maximum (in C1COCCO1): 437 nm

SMILES: C(=C\c1nc2c(c(N3CCOCC3)n1)CCCC2)/c1ccccc1
absorption maximum (in ClCCl): 284 nm

SMILES: CCCC1=Cc2nc1ccc1[nH]c(cc1CCC)c1nc(c3ccccc3c3[nH]c2cc3CCC)C(CCC)=C1
absorption maximum (in Cc1ccccc1): 762 nm

SMILES: Cc1ccc(/C=C/c2ccccc2-[n+]2noc([O-])c2-c2ccccc2)cc1
absorption maximum (in C1CCCCC1): 316 nm
absorption maximum (in CC#N): 313 nm
absorption maximum (in CCO): 315 nm

SMILES: CCCCC1(c2ccccc2)Nc2c(-c3ccc(N(c4ccccc4)c4ccccc4)cc3)ccc(-c3ccc(N(c4ccccc4)c4ccccc4)cc3)c2N=C1c1ccccc1 (stereo unspecified)
absorption maximum (in ClC(Cl)Cl): 370 nm

SMILES: COc1ccc2c3ccc(OC)cc3n(-c3ccc(-c4nnc(-c5c(C)cc(C)cc5C)o4)cc3C)c2c1
absorption maximum (in Cc1ccccc1): 319 nm

SMILES: COc1ccccc1-c1nc2c([nH]1)C1=CC(=O)S[C@]1(C)[C@@]1(C)SC(=O)C=C21
absorption maximum (in CC#N): 390 nm

SMILES: Cc1cc(C)c(C)c(B(c2c(C)c(C)cc(C)c2C)c2c(C)c(C)c(N3c4ccccc4Oc4ccccc43)c(C)c2C)c1C
absorption maximum (in CC(C)(C)c1ccc(-n2c3ccc([Si](c4ccccc4)(c4ccccc4)c4ccccc4)cc3c3cc([Si](c4ccccc4)(c4ccccc4)c4ccccc4)ccc32)cc1): 373 nm

SMILES: COc1ccc2c(c1)c1cc(OC)ccc1n2-c1cccc(-n2c3ccc(OC)cc3c3cc(OC)ccc32)c1C#N
absorption maximum (in Cc1ccccc1): 391 nm

SMILES: COc1cc(/C=C/c2ncc(-c3ccncc3)o2)cc(OC)c1OC
absorption maximum (in ClCCl): 352 nm

SMILES: CCOC(=O)CN(CC(=O)OCC)c1ccc(-c2cc(-c3cccnc3)nc(-c3cccnc3)c2)cc1
absorption maximum (in CC#N): 328 nm
absorption maximum (in CCOC(C)=O): 328 nm
absorption maximum (in CN(C)C=O): 334 nm
absorption maximum (in CS(C)=O): 338 nm
absorption maximum (in c1ccccc1): 328 nm

SMILES: c1ccc(-c2cc3ccccc3p2-c2ccccc2)cc1 (stereo unspecified)
absorption maximum (in C1CCOC1): 321 nm

SMILES: CCOC(=O)c1cc(C(=O)OCC)c2ccc(C)cc2n1
absorption maximum (in CCO): 321 nm

SMILES: FC(F)(F)c1cc2n(n1)[B-]1(c3ccccc3Oc3ccccc31)[n+]1ccc3ccccc3c1-2
absorption maximum (in C1CCCCC1): 375 nm
absorption maximum (in Cc1ccccc1): 378 nm
absorption maximum (in ClCCl): 372 nm

SMILES: CCN(CC)c1ccc(/N=N/c2nc3ccc(Br)cc3s2)cc1
absorption maximum (in CC#N): 520 nm
absorption maximum (in ClCCl): 518 nm

SMILES: COc1ccc2c(=O)c3c([nH]c2c1)-c1ccccc1NC3(C)C
absorption maximum (in C1CCOC1): 404 nm
absorption maximum (in CC#N): 415 nm
absorption maximum (in CCCCO): 424 nm
absorption maximum (in CCCO): 421 nm
absorption maximum (in CCO): 424 nm
absorption maximum (in CCOC(C)=O): 395 nm
absorption maximum (in CN(C)C=O): 421 nm
absorption maximum (in CO): 424 nm
absorption maximum (in CS(C)=O): 424 nm
absorption maximum (in Cc1ccccc1): 397 nm
absorption maximum (in ClC(Cl)(Cl)Cl): 404 nm
absorption maximum (in ClCCl): 403 nm
absorption maximum (in O): 383 nm
absorption maximum (in c1ccccc1): 402 nm

SMILES: N#Cc1nc(-n2c3ccccc3c3ccccc32)cc(-n2c3ccccc3c3ccccc32)n1
absorption maximum (in Cc1ccccc1): 371 nm

SMILES: O=[N+]([O-])c1ccc(O)cc1
absorption maximum (in CO): 309 nm
absorption maximum (in O): 401 nm

Next, values leading:

absorption maximum (in CC#N): 551 nm
absorption maximum (in CCO): 556 nm
absorption maximum (in CN(C)C=O): 554 nm
absorption maximum (in O): 554 nm
SMILES: CCN(CC)c1ccc2c(-c3ccc(S(=O)(=O)O)cc3S(=O)(=O)[O-])c3ccc(=[N+](CC)CC)cc-3oc2c1

absorption maximum (in C1CCOC1): 379.46 nm
SMILES: CC(C)(C)c1ccc(-c2nc(-c3ccc(C(C)(C)C)cc3)nc(-c3ccc(-n4c5ccccc5c5c6oc7ccccc7c6ccc54)c(C#N)c3)n2)cc1

absorption maximum (in C1CCOC1): 339 nm
absorption maximum (in CC#N): 332 nm
absorption maximum (in CS(C)=O): 335 nm
absorption maximum (in ClC(Cl)Cl): 332 nm
SMILES: COc1cccc2cc(-c3ccc([N+](=O)[O-])cc3)c(=N)oc12

absorption maximum (in C1CCCCC1): 449 nm
SMILES: c1ccc(-c2cc3cccc[n+]3[b-]3c(-c4cccc5[b-]4[n+]4ccccc4cc5-c4ccccc4)cccc32)cc1

absorption maximum (in C1CCOC1): 368 nm
SMILES: O=P1(c2ccccc2)C(c2cccs2)=C(c2cccs2)c2ccccc21 (stereo unspecified)

absorption maximum (in ClC(Cl)Cl): 581 nm
SMILES: Cc1cc(C)c(C2=C3C=CC(c4csc5ccccc45)=[N+]3[B-](F)(F)n3c2ccc3-c2csc3ccccc23)c(C)c1

absorption maximum (in ClCCl): 404 nm
SMILES: CC(C)[Si](C#Cc1cc2c3c(c1)c(=C(c1ccccc1)c1ccccc1)c1cc(C#C[Si](C(C)C)(C(C)C)C(C)C)cc4c1N3c1c(cc(C#C[Si](C(C)C)(C(C)C)C(C)C)cc1c4=C(c1ccccc1)c1ccccc1)c2=C(c1ccccc1)c1ccccc1)(C(C)C)C(C)C

absorption maximum (in CCCCCC): 607 nm
SMILES: CC(C)[Si](C#Cc1c2nsnc2c(C#C[Si](C(C)C)(C(C)C)C(C)C)c2nc3c(ccc4ccccc43)nc12)(C(C)C)C(C)C

absorption maximum (in C1CCOC1): 425 nm
SMILES: COc1ccc2c(c1)c1ccc3cccc4c5cccc6oc(=O)c2c(c65)c1c34

absorption maximum (in ClCCl): 337 nm
SMILES: CCOC(=O)c1c(-c2cc3ccc(OC)cc3oc2=O)nn(-c2cccc(C)c2)c1C(=O)OCC

absorption maximum (in ClCCl): 341 nm
SMILES: COc1ccc(-c2cnc3cccc(-c4ccccc4)n23)cc1

absorption maximum (in CC#N): 771 nm
SMILES: CN1\C(=C/C=C/C=C/C2=C3C=CC(c4ccccc4)=[N+]3[B-](F)(F)n3c2ccc3-c2ccccc2)C(C)(C)c2ccccc21

absorption maximum (in ClC(Cl)Cl): 549 nm
SMILES: CC1=[N+]2C(=C(c3c4ccccc4cc4ccccc34)c3ccc(/C=C/C(C)(C)C)n3[B-]2(F)F)C=C1

absorption maximum (in C1COCCO1): 465 nm
SMILES: COc1ccc(C2=C/C(=C\c3ccc([N+](=O)[O-])cc3)C(=O)N2CC(C)C)cc1

absorption maximum (in C1CCOC1): 361 nm
absorption maximum (in ClC(Cl)Cl): 362 nm
absorption maximum (in ClCCl): 360 nm
SMILES: COc1cc2cc(OC)c(C#Cc3ccc([N+](=O)[O-])cc3)cc2cc1C#Cc1ccc([N+](=O)[O-])cc1

absorption maximum (in C1CCOC1): 387 nm
SMILES: CC(C)(C)c1ccc2c(c1)c1cc(C(C)(C)C)cc3c1n2B1c2c-3cccc2-c2cc(C(C)(C)C)cc3c4cc(C(C)(C)C)ccc4n1c23

absorption maximum (in ClCCl): 383 nm
SMILES: CC(C)(C)C#Cc1cc2c(C#CC(C)(C)C)c(C#CC(C)(C)C)c3cc(C#CC(C)(C)C)cc4c(C#CC(C)(C)C)c(C#CC(C)(C)C)c(c1)c2c34

absorption maximum (in ClC(Cl)Cl): 332 nm
SMILES: CN(C)c1ccc(-c2ccc(-c3cc(-c4ccccc4)c(-c4ccccc4)c(-c4ccccc4)c3-c3ccccc3)nc2)cc1
